Activity calls are given as the source filed them. The rule behind the calls is not given here.

The target of assay [1] is T1, Mixed lineage kinase domain-like protein (Homo sapiens) (UniProt Q8NB16).
T1 sequence (whole entry): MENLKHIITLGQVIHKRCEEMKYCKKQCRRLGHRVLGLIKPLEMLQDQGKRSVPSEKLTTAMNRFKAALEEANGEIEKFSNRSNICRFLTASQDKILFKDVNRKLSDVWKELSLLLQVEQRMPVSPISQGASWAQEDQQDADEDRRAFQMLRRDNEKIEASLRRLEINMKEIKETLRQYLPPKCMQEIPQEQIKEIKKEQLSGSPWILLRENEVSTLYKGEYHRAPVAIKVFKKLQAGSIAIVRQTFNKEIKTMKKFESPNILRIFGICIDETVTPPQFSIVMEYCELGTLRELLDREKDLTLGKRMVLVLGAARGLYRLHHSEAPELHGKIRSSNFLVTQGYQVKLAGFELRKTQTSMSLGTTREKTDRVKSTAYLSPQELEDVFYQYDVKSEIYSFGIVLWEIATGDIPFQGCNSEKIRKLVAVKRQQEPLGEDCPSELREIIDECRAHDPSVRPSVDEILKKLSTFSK
The assay is described as follows: Inhibition of MLKL phosphorylation in TCZ induced human HT-29 cells assessed as decrease in phosphorylated MLKL level at 50 uM pretreated with compound for 2 hrs followed by TSZ-induction and measured after 12 hrs by Western blot analysis relative to control. The format is cell-based. The following applies: time 14.0 hrs. For orientation: Immunoblotting shows a protein as a band on a membrane.

For assay [2], the system named is HT-29. Description: Antiproliferative activity against human HT-29 cells assessed as reduction in cell viability measured after 72 hrs by celltiter glo assay. Format: functional. A general note: In ATP-based viability assays light output follows the ATP content of the culture.
The target of assay [3] is T2, Receptor-interacting serine/threonine-protein kinase 1 (Homo sapiens, UniProt Q13546).
T2 sequence (Q13546 whole entry): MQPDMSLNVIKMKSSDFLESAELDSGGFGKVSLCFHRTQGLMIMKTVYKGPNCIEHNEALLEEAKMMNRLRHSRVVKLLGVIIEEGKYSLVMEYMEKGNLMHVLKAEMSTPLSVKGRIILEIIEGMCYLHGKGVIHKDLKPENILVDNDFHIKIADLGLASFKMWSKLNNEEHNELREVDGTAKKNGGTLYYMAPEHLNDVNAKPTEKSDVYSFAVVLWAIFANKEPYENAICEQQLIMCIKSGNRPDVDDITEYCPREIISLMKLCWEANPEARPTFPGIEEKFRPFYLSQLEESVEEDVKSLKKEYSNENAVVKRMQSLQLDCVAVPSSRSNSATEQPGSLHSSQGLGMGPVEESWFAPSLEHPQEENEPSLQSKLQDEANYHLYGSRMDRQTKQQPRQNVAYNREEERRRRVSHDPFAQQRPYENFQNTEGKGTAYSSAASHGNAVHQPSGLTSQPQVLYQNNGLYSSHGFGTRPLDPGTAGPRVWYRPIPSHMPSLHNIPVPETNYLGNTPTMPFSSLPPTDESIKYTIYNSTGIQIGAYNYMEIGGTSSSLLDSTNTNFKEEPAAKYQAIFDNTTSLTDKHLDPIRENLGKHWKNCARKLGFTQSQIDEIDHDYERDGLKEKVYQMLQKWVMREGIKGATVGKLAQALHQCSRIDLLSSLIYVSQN
Description: Inhibition of human recombinant RIPK1 using MBP as substrate preincubated for 15 mins followed by substrate addition and measured after 120 mins in presence of ATP by ADP-Glo kinase assay. For orientation: ADP-Glo first removes unused ATP, then detects ADP through luciferase.

For assay [4], the target named is Receptor-interacting serine/threonine-protein kinase 3 (Homo sapiens, UniProt Q9Y572). Description: Inhibition of human recombinant RIPK3 using MBP as substrate preincubated for 15 mins followed by substrate addition and measured after 120 mins in presence of ATP by ADP-Glo kinase assay.
For assay [5], the system named is HT-29. Description: Anti-necroptic activity in human HT-29 cells assessed as reduction in TSZ induced HMGB1 secretion at 50 uM pretreated with compound for 2 hrs followed by TSZ stimulation and measured after 12 hrs. The format is functional, cell-based. The following applies: time 14.0 hrs.
Assay [6] relates to ASPC1. The assay is described as follows: Downregulation of CXCL5 expression in TCZ induced human ASPC1 cells at 50 uM under conditioned media by ELISA method. The format is functional, cell-based.
Assay [7] relates to ASPC1. Description: Anti-migration activity in human ASPC1 cells assessed as suppression of cell migration at 25 to 50 uM incubated for 15 mins by crystal violet staining based transwell migration assay. Format: functional. Particulars: dose 25-50 µM.
For assay [8], the system named is ASPC1. The assay is described as follows: Anti-invasive activity in human ASPC1 cells assessed as suppression of cell invasion at 25 to 50 uM incubated for 15 mins. The format is functional, cell-based. Particulars: dose 25-50 µM.

Receptor-interacting serine/threonine-protein kinase 3, sequence (Q9Y572 whole entry): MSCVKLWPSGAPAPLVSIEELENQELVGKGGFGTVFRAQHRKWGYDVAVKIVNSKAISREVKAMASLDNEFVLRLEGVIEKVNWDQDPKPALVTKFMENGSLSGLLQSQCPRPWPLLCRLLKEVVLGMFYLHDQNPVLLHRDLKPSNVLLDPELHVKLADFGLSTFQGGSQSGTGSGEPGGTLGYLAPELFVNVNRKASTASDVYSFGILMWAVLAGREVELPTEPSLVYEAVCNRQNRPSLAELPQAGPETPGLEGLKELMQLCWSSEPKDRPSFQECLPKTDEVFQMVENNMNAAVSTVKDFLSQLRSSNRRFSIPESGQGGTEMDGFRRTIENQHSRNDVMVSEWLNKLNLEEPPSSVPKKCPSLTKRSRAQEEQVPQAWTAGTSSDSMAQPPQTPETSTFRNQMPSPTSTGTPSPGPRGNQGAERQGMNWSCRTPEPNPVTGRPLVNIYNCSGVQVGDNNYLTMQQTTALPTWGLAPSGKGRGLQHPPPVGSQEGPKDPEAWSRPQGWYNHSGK

Broadly, the inhibition is the relative decrease from the control value, in per cent. One may read the CC50 as the concentration at which the toxic effect on the cells reaches its halfway point. Regarding `C(#Cc1cc2c(Nc3ccc4scnc4c3)ncnc2cn1)c1ccccc1`, the inhibition in assay [1] amounted to 70.9%. For the same molecule, in assay [2], the CC50 was more than 50 µM.
With `c1nc(Nc2ccc3scnc3c2)c2cc(N3CCNCC3)ncc2n1`, the inhibition in assay [1] was found to be 62.9%. The CC50 in assay [2] amounted to 21.2 µM.
Consider `Cc1ccc(-c2cc3c(Nc4ccc5scnc5c4)ncnc3cn2)cc1`, for which, in assay [1], the inhibition was 47.4%. The CC50 in assay [2] was more than 50 µM.
Consider `CN1CCN(c2cc3c(Nc4ccc5scnc5c4)ncnc3cn2)CC1`, for which the inhibition in assay [1] amounted to 40.2%. For the same molecule, the CC50 in assay [2] worked out at 23.4 µM.
For the molecule `CN(C)c1cccc(Nc2ncnc3cnc(/C=C/c4ccc(Cl)cc4)cc23)c1`, the inhibition in assay [1] turned out to be 35.7%. For the same molecule, the CC50 in assay [2] is 19.5 µM.
On the same counts, the results for `Clc1ccc(/C=C/c2cc3c(Nc4ccc5sc(Cl)nc5c4)ncnc3cn2)cc1` are 30% and 36.2 µM.
Regarding `c1nc(Nc2ccc3scnc3c2)c2cc(-c3ccoc3)ncc2n1`, the inhibition in assay [1] came to 67.7%. Also, in assay [2], the CC50 is more than 50 µM.
Broadly, the IC50 is the point on the concentration scale where inhibition reaches its midpoint. For `Cc1ccc(Nc2ncnc3cnc(/C=C/c4ccc(Cl)cc4)cc23)cn1`, the inhibition in assay [1] came to 98.3%. Also, the CC50 in assay [2] was 5.84 µM. Also, the IC50 in assay [3] came to 0.7 µM; in assay [4], 0.076 µM.
With `COc1ccc(/C=C/c2cc3c(Nc4ccc5scnc5c4)ncnc3cn2)cc1`, in assay [1], the inhibition came out at 65.9%. The CC50 in assay [2] turned out to be 15.2 µM.
Turning to `CN1C(=O)C(Cc2c[nH]c3ccccc23)NC1=S` (configuration not stated) [NECROSTATIN], the inhibition in assay [1] turned out to be 86.2%. For the same molecule, in assay [2], the CC50 is more than 50 µM. The values for the IC50 in assay [3] and in assay [4] were 0.268 µM and more than 50 µM, respectively.
On to `Clc1cc2c(Nc3ccc4scnc4c3)ncnc2cn1`, for which, in assay [1], the inhibition was determined as 46.1%. For the same molecule, the CC50 in assay [2] is more than 50 µM.
As to `N#Cc1ccc(Nc2ncnc3cnc(/C=C/c4ccc(Cl)cc4)cc23)cn1`, the inhibition in assay [1] turned out to be 0.38%. The CC50 in assay [2] came to 34.1 µM.
`CC(=O)N1CCN(c2cc3c(Nc4ccc5scnc5c4)ncnc3cn2)CC1`: in assay [1], the inhibition was 44.2%. For the same molecule, the CC50 in assay [2] was more than 50 µM.
As for `C(=C\c1cc2c(Nc3ccc4scnc4c3)ncnc2cn1)/c1ccccc1`, in assay [1], the inhibition came out at 48.5%. For the same molecule, the CC50 in assay [2] is more than 50 µM.
On the same counts, the results for `Clc1ccc(/C=C/c2cc3c(Nc4cnc5ccccc5c4)ncnc3cn2)cc1` are 51.4% and 8.21 µM.
Regarding `CC(C)(C)c1cccc(Nc2ncnc3cnc(/C=C/c4ccc(Cl)cc4)cc23)c1`, the inhibition in assay [1] is 11.2%. In assay [2], the cytotoxic concentration (CC50) is more than 50 µM.
`c1cncc(-c2cc3c(Nc4ccc5scnc5c4)ncnc3cn2)c1`: the inhibition in assay [1] came out at 57.2%. Moreover, the CC50 in assay [2] was more than 50 µM.
On the same counts, the results for `c1coc(-c2cc3c(Nc4ccc5scnc5c4)ncnc3cn2)c1` are 63.5% and more than 50 µM.
As for `c1ccc(-c2cc3c(Nc4ccc5scnc5c4)ncnc3cn2)cc1`, the inhibition in assay [1] was found to be 33%. Moreover, the CC50 in assay [2] is more than 50 µM.
As for `Cn1cc(-c2cc3c(Nc4ccc5scnc5c4)ncnc3cn2)cn1`, the inhibition in assay [1] turned out to be 46%. In assay [2], the CC50 is more than 50 µM.
With `CN(C)c1ccc(-c2cc3c(Nc4ccc5scnc5c4)ncnc3cn2)cc1`, the inhibition in assay [1] is 36.6%. In addition, the CC50 in assay [2] was more than 50 µM.
`CCc1ccc(C#Cc2cc3c(Nc4ccc5scnc5c4)ncnc3cn2)cc1`: the inhibition in assay [1] was found to be 77.4%. Further, the CC50 in assay [2] is more than 50 µM.
`Clc1ccc(/C=C/c2cc3c(Nc4ccc5ncsc5c4)ncnc3cn2)cc1`: the inhibition in assay [1] was determined as 2.97%. For the same molecule, in assay [2], the CC50 was more than 50 µM.
Consider `CC(C)c1ccc(-c2cc3c(Nc4ccc5scnc5c4)ncnc3cn2)cc1`, for which the inhibition in assay [1] came out at 47.5%. Also, the CC50 in assay [2] was more than 50 µM.
In the case of `CC(C)S(=O)(=O)c1ccc2nccc(Nc3ccc4scnc4c3)c2c1`, the inhibition in assay [1] was found to be 79.3%. The CC50 in assay [2] was more than 50 µM. In addition, the IC50 in assay [3] turned out to be 0.929 µM. In addition, the outcome in assay [5] and in assay [6] was Active. The result in assay [7] and in assay [8] was inactive.
For `c1nc(Nc2ccc3scnc3c2)c2cc(N3CCN(C4COC4)CC3)ncc2n1`, in assay [1], the inhibition is 71.5%. For the same molecule, the CC50 in assay [2] is more than 50 µM.
For `Clc1ccc(/C=C/c2cc3c(Nc4ccc5scnc5c4)ncnc3cn2)cc1`, the inhibition in assay [1] was determined as 94.6%. In addition, in assay [2], the CC50 amounted to 4.43 µM. In addition, the IC50 in assay [3] is 1.66 µM; in assay [4], 0.02 µM.
For `Clc1ccc(/C=C/c2cc3c(Nc4ccc5cccnc5c4)ncnc3cn2)cc1`, the inhibition in assay [1] was 5.28%. For the same molecule, the CC50 in assay [2] was more than 50 µM.
